# Entries after “also recorded” stand apart in the source; their conditions may differ.
# Legend:
# [1] = test system: retinal function of DM mice; test: Light-adapted flicker ERG (cone pathway function); conditions: 5-week time point
# Procedure: Because OKT responses were recorded under photopic conditions, isolated cone pathway function was examined by exposing light-adapted animals to flicker stimuli.
# [2] = Behavioral side effects (dyskinesia) under L-DOPA; format: in vivo; conditions: L-DOPA 10 mg/kg daily, CTRL or DM mice
# Excerpt: (§1) To examine whether DA deficiency causes visual deficits in early DR, the effects of restoring DA levels with L-DOPA on visual function of DM mice was investigated. […] Moreover, the severity of visual deficits progressed over time. The deficit in spatial frequency threshold of DM WT+Veh group (compared with CTRL WT+Veh group) worsened from 7.0% at 3 weeks after STZ to 12.3% at 6 weeks after STZ, whereas the reduction in contrast sensitivity deteriorated from 12.8% at 3 weeks after STZ to 43.6% at 6 weeks after STZ. […] The reduction in spatial frequency threshold of DM WT+L-DOPA group progressed from 2.4% at 3 weeks after STZ to 7.2% at 6 weeks after STZ, whereas the deficit in contrast sensitivity was only significant at 6 weeks after STZ, with an 18.0% reduction from CTRL animals. […] Furthermore, behavioral side effects such as dyskinesia with our current dosage of L-DOPA (10 mg/kg daily) in either CTRL or DM mice was not observed. A dosage was selected that was lower than the typical dosage used to induce dyskinesia (25 mg/kg) yet could still increase retinal DA levels.
# [3] = test system: Th, Drd1, Drd4 transcript levels; test: Real-time RT-PCR of retinal dopaminergic system-related genes; format: in vivo, mice
# Excerpt: Note that the y-axis refers to averaged 2−ΔCt values, with ΔCt calculated by subtracting cycle threshold (Ct) of 18S from Ct of gene of interest (GOI). The asterisk indicates significant difference between the respective treatment group and the CTRL WT group.
# The specificity of our Th primers was confirmed, because a >4-fold reduction in Th expression in rTHKO mice (Student's t values: DM rTHKO+Veh=5.964 and DM rTHKO+L-DOPA=5.928, p<0.01; FIG. 7, Table 4) regardless of L-DOPA treatment was found.
# Whether diabetes affected transcript levels of DA receptors, specifically D1 receptor (Drd1) and D4 receptor (Drd4), which are selectively involved in spatial frequency threshold and contrast sensitivity was investigated. No significant changes were found in the transcript levels of Drd1 and Drd4 (FIG. 7, Table 4).
# retinal DA levels = test: Retinal dopamine content after daily intraperitoneal L-DOPA; format: in vivo, mice; conditions: daily intraperitoneal injections
# Procedure: To validate that daily intraperitoneal injections of L-DOPA were able to increase retinal DA levels, retinal dopamine contents of the following four groups of animals were measured: CTRL WT+Veh, CTRL WT+L-DOPA, DM rTHKO+Veh, and DM rTHKO+L-DOPA. The retinal TH deficiency in the rTHKO mice greatly diminished DA levels compared with both CTRL groups (one-way ANOVA with ranks, H=12.092 with 3 degrees of freedom, p=0.007; Table 3).
# STZ-induced DM WT mice = test: Optokinetic tracking (OKT) visual function with chronic L-DOPA treatment in STZ-induced diabetic (DM) and CTRL WT mice; format: in vivo; conditions: for reduction in spatial frequency threshold: DM WT+L-DOPA group vs CTRL
# Excerpt: as §1
# DM rTHKO mice = test: OKT visual function with L-DOPA treatment in diabetic mice with loss of retinal DA (DM rTHKO); format: in vivo
# Procedure: Because systemic injections of L-DOPA affect both brain and retinal dopaminergic systems, the role of retinal DA deficiency underlying visual deficits in early-stage DR was tested by assessing the effects of diabetes in mice with loss of retinal DA (rTHKO mice). It is hypothesized that reduced retinal DA content is a major contributing factor to the early visual deficits, so diabetes in rTHKO mice should not result in a further decline in their visual function.
# [4] = test system: retinal function of DM mice
# Excerpt: Next, the postreceptoral function (i.e., b-wave) of these animals was examined.
# 8-week DM WT mice = test: OKT responses of 8-week DM WT mice after selective dopamine receptor agonists; format: in vivo; conditions: DM WT mice after 8 weeks of diabetes, agonist injection vs vehicle
# Procedure: After 8 weeks of diabetes, the animals were injected with vehicle, D1 receptor (D1R) agonist (SKF38393), and D4 receptor (D4R) agonist (PD168077).
smiles,measurement,setting,value
"N[C@@H](Cc1ccc(O)c(O)c1)C(=O)O [L-DOPA, (−)-L-α-amino-β-(3,4-dihydroxybenzene)propanoic acid]",flicker ERG responses (amplitude and implicit time),"[1]; DM WT+L-DOPA, light-adapted, 6 Hz flicker",levels similar to those of CTRL animals; also recorded: restore ERG responses of DM WT mice to those of CTRL mice
same,cone pathway functions (flicker responses),[1]; DM rTHKO+L-DOPA vs CTRL levels,partially restore
same,behavioral side effects such as dyskinesia,[2],not observed
same,Drd4 transcript levels,"[3]; DM WT+L-DOPA vs CTRL WT, p<0.05",significant downregulation; also recorded: downregulation of Drd4
same,Th transcript levels,"[3]; L-DOPA treatment, retina, RT-PCR",trend for Th downregulation
same,DA levels of CTRL mice,retinal DA levels; CTRL WT+L-DOPA,did not significantly increase
same,retina DA contents of rTHKO mice,retinal DA levels; DM rTHKO+L-DOPA,levels comparable to those of CTRL animals
same,contrast sensitivity change,"STZ-induced DM WT mice; DM WT and L-DOPA mice, 6 weeks after STZ",slight decrease
same,onset of visual deficits (spatial frequency threshold),"STZ-induced DM WT mice; DM WT and L-DOPA mice, slower and less severe progression",4 weeks after STZ
same,onset and progression of visual dysfunction,"STZ-induced DM WT mice; DM WT mice, chronic L-DOPA treatment",significantly delayed
same,reduction in spatial frequency threshold,"STZ-induced DM WT mice; 3 weeks after STZ, L-DOPA 10 mg/kg daily",2.4%
same,reduction in spatial frequency threshold,"STZ-induced DM WT mice; 6 weeks after STZ, L-DOPA 10 mg/kg daily",7.2%
same,deficit in contrast sensitivity (reduction from CTRL animals),"STZ-induced DM WT mice; DM WT+L-DOPA group, 6 weeks after STZ, L-DOPA 10 mg/kg daily",18.0%
same,spatial frequency threshold or contrast sensitivity in CTRL mice,STZ-induced DM WT mice; non-diabetic CTRL mice treated with L-DOPA,did not cause significant changes
same,contrast sensitivities vs DM rTHKO+Veh,DM rTHKO mice,significantly better
same,visual functions of DM rTHKO mice,DM rTHKO mice; for the duration of the study,significantly improved
same,spatial frequency thresholds vs DM rTHKO+Veh,"DM rTHKO mice; throughout the study duration, p<0.001",significantly higher
same,b-wave amplitude,"[4]; DM rTHKO mice (±L-DOPA) vs CTRL WT, dim and bright flash stimuli",significantly reduced responses
same,b-wave implicit times,"[4]; DM rTHKO+L-DOPA, dim and bright stimuli","strong, although not statistically significant, trend for improvement"
Cc1cccc(C(=O)NCN2CCN(c3ccccc3C#N)CC2)c1 [PD168077],contrast sensitivity,8-week DM WT mice,only improved contrast sensitivity
same,spatial frequency threshold,8-week DM WT mice,failed to improve
same,contrast sensitivity,8-week DM WT mice; listed as D4 agonist,significantly enhanced
"Oc1cc2c(cc1O)C(c1ccccc1)CNCC2 (stereo not drawn) [SKF38393, 1-Phenyl-2,3,4,5-tetrahydro-(1H)-3-benzazepine-7,8-diol]",spatial frequency threshold,8-week DM WT mice,only improved spatial frequency threshold
same,spatial frequency threshold,8-week DM WT mice; listed as D1 receptor agonist,improved significantly

# — US20160317474A1, “Managing Visual Dysfunction or Loss of Vision for Diabetic Subjects” (priority 2013, published 2016)
